Experimental data from patent US20150126553A1, “BICYCLIC HETEROCYCLES CAPABLE OF MODULATING T-CELL RESPONSES, AND METHODS OF USING SAME” (Nogra Pharma Limited, priority 2012, published 2015).

Legend:
kinase Zap70 = experiment: Western blot of T cell receptor related signaling, phospho-Zap70; assay type: cell-based, human; settings: pretreated 10 minutes, stimulated 10 minutes with PHA; FIG. 2A
Procedure: (§1) Lymphocytes were seeded in a 6 well plate (1.0·10^7/well), pretreated for 10 minutes with S3.1, S3.4 or dexamethasone and stimulated for 10 minutes with PHA. The experiment was stopped by adding a large volume of ice cold PBS to the cells. The suspension was transferred to a tube, briefly spinned down in a centrifuge and the supernatant removed. The pellet was lysed by adding cold lysisbuffer (0.1% NP40, 50 mM TrisHCl, 1 mM EDTA, 1 mM EGTA, 150 mM NaCl, 200 μM Na3VO4, 10 mM NaF and protease inhibitors) and incubating 20 minutes on ice.
(§2) To investigate the cell signaling events that are affected by treatment with S3.1 and S3.4, lysates were supplemented with sample buffer (188 mM Tris-Cl (pH 6.8), 3% SDS, 30% glycerol, 0.01% bromophenol blue, 15% β-mercaptoethanol), heated to 95° C. for 5 minutes, cooled on ice and sonicated. Samples were then run on 10% SDS-PAGE gel, blotted to PVDF membrane and incubated with antibodies for phospho-Zap70 (Cell Signaling Technology (Beverly, Mass.)) and phospho-LAT (Cell Signaling Technology (Beverly, Mass.)). To show equal loading of the samples the blot was incubated with an antibody directed against beta-actin (Santa Cruz Biotechnology (Heidelberg, Germany)).

scaffolding protein LAT = experiment: Western blot of T cell receptor related signaling, phospho-LAT; assay type: cell-based, human; settings: pretreated 10 minutes, stimulated 10 minutes with PHA; FIG. 2A
Procedure: as §1, §2

[1] = tested on: Human peripheral blood lymphocytes (PBLs); experiment: Inhibition of T lymphocyte proliferation (PHA stimulation, tritiated thymidine); assay type: cell-based; settings: PHA stimulated lymphocytes
Procedure: Human peripheral blood lymphocytes (PBLs) were isolated from whole blood of healthy volunteers by Ficoll-Isopaque density gradient centrifugation. After washing, monocytes were separated from lymphocytes by percoll density gradient centrifugation. The lymphocytes were cultured in IMDM (Gibco, Verviers, Belgium) supplemented with 10% heat inactivated fetal calf serum.
Cells were seeded in 96 well plates and stimulated with PHA (10 μg/ml) and corresponding concentration of pharmaceuticals. After 24 hours tritiated thymidine was added to each well and left overnight. Next morning proliferation was measured by microbeta counter. Graphs were plotted with the untreated condition set to a hundred percent.

SMILES: c1ccc(CN2CCCC(c3ccnc(SCCN4CCCC4)n3)C2)cc1 (stereo not drawn) [Compound S3.4]
- Zap70 phosphorylation level compared to a stimulated untreated control (kinase Zap70): lower phosphorylation levels
- LAT phosphorylation level compared to a stimulated untreated control (scaffolding protein LAT): lower phosphorylation levels
- effect on T lymphocyte proliferation [1]: antiproliferative effect
